Data from ChEMBL document CHEMBL1138655, “Synthesis and biological studies of 1-amino beta-carbolines” (Bioorg Med Chem Lett, 2004).
≈ marks a conversion by molar mass, not a printed value.

Key:
[1] = test system: Plasmodium falciparum; test: Inhibitory concentration for Plasmodium falciparum; format: functional, organism-based
[2] = test system: Trypanosoma brucei rhodesiense; test: inhibitory concentration against Trypanosoma brucei rhodesiense determined; format: functional, organism-based
[3] = test system: Trypanosoma cruzi; test: inhibitory concentration against Trypanosoma cruzi was determined; format: functional, organism-based
[4] = test system: Leishmania donovani; test: inhibitory concentration against Leishmania donovani was determined; format: functional, organism-based
[5] = test system: K562; test: Concentration required for 50% growth inhibition against human leukemia K-562 cell lines; format: functional
[6] = test system: OVCAR-3; test: Concentration required for 50% growth inhibition against human ovarian OVCAR-3 cell lines; format: functional
[7] = test system: M14; test: Concentration required for 50% growth inhibition against human melanoma M14 cell lines; format: functional
[8] = test system: UACC-62; test: Concentration required for 50% growth inhibition against human melanoma UACC-62 cell lines; format: functional
[9] = test system: HOP-92; test: Concentration required for 50% growth inhibition against human non small cell lung cancer HOP-92; format: functional
[10] = test system: MDA-MB-231; test: Concentration required for 50% growth inhibition against human breast MDA-MB-231/ATCC cell lines; format: functional
[11] = test system: HT-29; test: Concentration required for 50% growth inhibition against human colon HT-29 cell lines; format: functional

`OC1CCCN(c2[nH]ccc3c4ccccc4nc2-3)C1` (configuration not stated) was tested, and the IC50 [1] was 3.4 mg/L (≈ 12.7 µM), the IC50 [2] was 8.9 mg/L (≈ 33.3 µM) and the IC50 [3] was 19.3 mg/L (≈ 72.4 µM). The IC50 [4] was over 90 mg/L.
In the case of `CN1CCN(c2nccc3c2[nH]c2ccccc23)CC1`, the GI50 [5] is reported as 22.5 µM, the GI50 [6] is reported as 19.9 µM and the IC50 [1] is reported as 0.62 mg/L (≈ 2.33 µM). For the same molecule, the IC50 [2] was 0.63 mg/L (≈ 2.37 µM), the GI50 [7] was 14.9 µM and the GI50 [8] was 17.8 µM. The IC50 [3] was 4.3 mg/L (≈ 16.1 µM), the IC50 [4] was over 90 mg/L and the GI50 [9] was 18.6 µM. The GI50 [10] was 3.9 µM.
Work on `CN(C)CCCNc1nccc2c1[nH]c1ccccc12` yielded an IC50 [1] of 0.45 mg/L (≈ 1.68 µM), an IC50 [2] of 28.1 mg/L (≈ 105 µM) and an IC50 [3] of 4.2 mg/L (≈ 15.7 µM). The IC50 [4] was over 90 mg/L.
`c1ccc2c3cc[nH]c(N4CCN(N5CCCCCC5)CC4)c-3nc2c1` showed an IC50 [1] of 0.35 mg/L (≈ 1 µM), an IC50 [2] of 0.61 mg/L (≈ 1.75 µM) and an IC50 [3] of 6.5 mg/L (≈ 18.6 µM). It also gave an IC50 [4] of over 90 mg/L.
`c1ccc2c(c1)[nH]c1c(N3CCCCC3)nccc12` showed an IC50 [1] of 1.2 mg/L (≈ 4.77 µM), an IC50 [2] of 0.13 mg/L (≈ 0.517 µM) and an IC50 [3] of over 30 mg/L. The IC50 [4] was over 90 mg/L.
Work on `c1ccc2c3cc[nH]c(N4CCN(N5CCCC5)CC4)c-3nc2c1` yielded an IC50 [1] of 0.45 mg/L (≈ 1.4 µM), an IC50 [2] of 0.52 mg/L (≈ 1.62 µM) and an IC50 [3] of 6.1 mg/L (≈ 19 µM). The IC50 [4] was over 90 mg/L.
Work on `c1ccc2c3cc[nH]c(N4CCN(N5CCCCC5)CC4)c-3nc2c1` yielded an IC50 [1] of 0.39 mg/L (≈ 1.16 µM), an IC50 [2] of 1.8 mg/L (≈ 5.37 µM) and an IC50 [3] of 2.35 mg/L (≈ 7.01 µM). It also gave an IC50 [4] of over 90 mg/L.
`OCCNc1[nH]ccc2c3ccccc3nc1-2` showed an IC50 [1] of 2.4 mg/L (≈ 10.6 µM), an IC50 [2] of 1.8 mg/L (≈ 7.92 µM) and an IC50 [3] of 4.25 mg/L (≈ 18.7 µM). The IC50 [4] was over 90 mg/L.
`CCN(CC)CCCC(C)Nc1nccc2c1[nH]c1ccccc12` (configuration not stated) gave a GI50 [5] of 12.2 µM, a GI50 [6] of 22.8 µM and an IC50 [1] of 0.42 mg/L (≈ 1.29 µM). It also gave an IC50 [2] of 0.13 mg/L (≈ 0.401 µM), a GI50 [7] of 16.4 µM and a GI50 [8] of 24 µM. It also gave an IC50 [3] of 3 mg/L (≈ 9.25 µM), an IC50 [4] of over 90 mg/L and a GI50 [9] of 4.5 µM. For the same molecule, the GI50 [11] was 22.9 µM.
Molecule `CCN(CC)N1CCN(c2[nH]ccc3c4ccccc4nc2-3)CC1` has an IC50 [1] of 0.41 mg/L (≈ 1.27 µM), an IC50 [2] of 0.63 mg/L (≈ 1.95 µM) and an IC50 [3] of 5.8 mg/L (≈ 17.9 µM). The IC50 [4] was over 90 mg/L.
For `c1ccc2c(c1)[nH]c1c(N3CCOCC3)nccc12`, the IC50 [1] was 4.59 mg/L (≈ 18.1 µM), the IC50 [2] was 18.2 mg/L (≈ 71.9 µM) and the IC50 [3] was 25.1 mg/L (≈ 99.1 µM). It also gave an IC50 [4] of over 90 mg/L.
In the case of `CCN(CC)CCCNc1nccc2c1[nH]c1ccccc12`, the GI50 [5] is reported as 3.2 µM, the GI50 [6] is reported as 1.6 µM and the IC50 [1] is reported as 0.64 mg/L (≈ 2.16 µM). The IC50 [2] was 0.18 mg/L (≈ 0.607 µM), the GI50 [7] was 2 µM and the GI50 [8] was 2.3 µM. It also gave an IC50 [3] of 1.62 mg/L (≈ 5.47 µM), an IC50 [4] of over 90 mg/L and a GI50 [9] of 0.38 µM. The GI50 [11] was 2.7 µM and the GI50 [10] was 5.2 µM.
